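Dose response: 5 concentrations. Exposure: 48 h. Format: 96-well plates. Endpoint: linear interpolation; highest concentration if not reached. Abbreviation: GI50, concentration required for 50% inhibition of growth. TGI denotes the concentration required for complete inhibition of growth.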

Among the test systems are A498 renal; EKVX NSCLC; IGROV1 ovarian; M19-MEL melanoma; MALME-3M melanoma; OVCAR-5 ovarian; RXF 393 renal; SF-539 CNS; SK-MEL-5 melanoma; SW-620 colon; ACHN renal.
Common to all, as to test: NCI-60 cell line screen, 48 h

In the case of `O=CNc1cccc2c3c([nH]c12)CCCCCC3`, the TGI with A498 renal, with EKVX NSCLC, with IGROV1 ovarian, in the experiment with M19-MEL melanoma, in the experiment on MALME-3M melanoma and in the experiment on OVCAR-5 ovarian was over 100 µM in each case. Further, the TGI in the experiment with RXF 393 renal, with SF-539 CNS, with SK-MEL-5 melanoma and in the experiment on SW-620 colon was over 100 µM each time.

In the case of `CCCCc1ccc2[n+](c1)C(C(=O)OCC)=PC2` (stereo unspecified), the TGI with A498 renal, in the experiment on ACHN renal, with EKVX NSCLC, in the experiment with IGROV1 ovarian, with MALME-3M melanoma and in the experiment with OVCAR-5 ovarian was over 100 µM throughout. Further, the TGI with RXF 393 renal, in the experiment on SF-539 CNS, in the experiment with SK-MEL-5 melanoma and with SW-620 colon was over 100 µM throughout.

For the compound `Cc1cc(NS(=O)(=O)c2ccc(Nc3c4ccccc4nc4c(C(=O)NCCN(C)C)ccc(Cl)c34)cc2)no1`, the TGI in the experiment with ACHN renal came to 12.3 µM; with EKVX NSCLC, 21.2 µM; in the experiment with IGROV1 ovarian, 20.7 µM; in the experiment on M19-MEL melanoma, 16.9 µM; in the experiment with OVCAR-5 ovarian, 28.5 µM; in the experiment on RXF 393 renal, 22.8 µM. The TGI in the experiment with SF-539 CNS was 14.6 µM; in the experiment on SK-MEL-5 melanoma it was 10.1 µM; with SW-620 colon it was 15.5 µM.

With `COc1ccc(C(=O)Cc2cc(OC)ccc2OC)cc1`, the TGI in the experiment on A498 renal, in the experiment on ACHN renal, with EKVX NSCLC, in the experiment with IGROV1 ovarian, in the experiment with M19-MEL melanoma and in the experiment with MALME-3M melanoma was over 100 µM in each case. Also, the TGI in the experiment with OVCAR-5 ovarian, in the experiment with RXF 393 renal, in the experiment with SF-539 CNS, in the experiment on SK-MEL-5 melanoma and in the experiment with SW-620 colon was over 100 µM each time.

For the compound `C=C1C(=O)O[C@H]2C1[C@H](OC(=O)/C(C)=C\COC(C)=O)C[C@]1(CO1)[C@@H]1[C@H](O)[C@H]3O[C@@]3(C)[C@@H]12` (stereo partly specified), the TGI in the experiment on A498 renal is 99 µM; with EKVX NSCLC, 57.3 µM; in the experiment on IGROV1 ovarian, 59.8 µM; in the experiment with M19-MEL melanoma, 34.4 µM; in the experiment on MALME-3M melanoma it was 38 µM; with OVCAR-5 ovarian it was over 100 µM. For the same compound, the TGI in the experiment with RXF 393 renal is 32.9 µM; in the experiment on SF-539 CNS, over 65.4 µM; in the experiment with SK-MEL-5 melanoma, 37.8 µM; with SW-620 colon, 30.8 µM.

Regarding `O=C1c2ccccc2-c2ccc(NC(=O)C3CCCCC3C(=O)O)cc21` (stereo unspecified), the TGI in the experiment with A498 renal, in the experiment on ACHN renal, with EKVX NSCLC, in the experiment with IGROV1 ovarian, with MALME-3M melanoma and in the experiment with OVCAR-5 ovarian was over 100 µM each time. Moreover, the TGI in the experiment with RXF 393 renal, in the experiment on SF-539 CNS, with SK-MEL-5 melanoma and in the experiment with SW-620 colon was over 100 µM in each case.

As for `COc1cc(N=Nc2cccc(S(=O)(=O)O)c2)c(C)cc1N=Nc1ccc(/C=C/c2ccc(N=[N+]([O-])c3ccc(/C=C/c4ccc(N=Nc5cc(C)c(N=Nc6cccc(S(=O)(=O)O)c6)cc5OC)cc4)c(S(=O)(=O)O)c3)cc2S(=O)(=O)O)cc1`, the TGI in the experiment on A498 renal, with EKVX NSCLC, in the experiment on IGROV1 ovarian, in the experiment with M19-MEL melanoma, with MALME-3M melanoma and with OVCAR-5 ovarian was over 100 µM throughout. In addition, the TGI in the experiment with RXF 393 renal, in the experiment on SF-539 CNS, in the experiment on SK-MEL-5 melanoma and in the experiment on SW-620 colon was over 100 µM throughout.

In the case of `COC(=O)C(C)N1C(=O)c2ccccc2I1OC(C)=O` (stereo unspecified), the GI50 was 30.2 µM with ACHN renal; over 100 µM in the experiment on EKVX NSCLC; 37.2 µM in the experiment on IGROV1 ovarian; 16.8 µM with MALME-3M melanoma; over 100 µM with OVCAR-5 ovarian; 32.3 µM in the experiment on RXF 393 renal. The results for the GI50 in the experiment on SF-539 CNS, in the experiment on SK-MEL-5 melanoma and in the experiment with SW-620 colon were 31.7 µM, over 100 µM and 15.5 µM, respectively. Moreover, the TGI was over 100 µM in the experiment with ACHN renal; over 100 µM in the experiment with EKVX NSCLC; over 100 µM in the experiment on IGROV1 ovarian; 54 µM with MALME-3M melanoma; over 100 µM in the experiment on OVCAR-5 ovarian; over 100 µM with RXF 393 renal. Further, the results for the TGI with SF-539 CNS, with SK-MEL-5 melanoma and in the experiment on SW-620 colon were over 100 µM, over 100 µM and 29.5 µM, respectively.

Turning to `CCOC(=O)C1C(c2cc(OC)c(O)c(OC)c2)c2cc3c(cc2OC1(C)O)OCO3` (stereo unspecified), the TGI in the experiment on ACHN renal, with EKVX NSCLC, in the experiment with IGROV1 ovarian, with M19-MEL melanoma, in the experiment with MALME-3M melanoma and with SF-539 CNS was over 100 µM in each case. Moreover, the TGI in the experiment with SK-MEL-5 melanoma and in the experiment on SW-620 colon was over 100 µM in each case.

Take `CC(C)=CCN(N=O)c1ncnc2nc[nH]c12`: the TGI in the experiment with A498 renal, with ACHN renal, with EKVX NSCLC, in the experiment on IGROV1 ovarian, in the experiment on MALME-3M melanoma and in the experiment with OVCAR-5 ovarian was over 100 µM each time. Moreover, the TGI in the experiment on RXF 393 renal, in the experiment on SF-539 CNS, in the experiment on SK-MEL-5 melanoma and in the experiment with SW-620 colon was over 100 µM each time.

Source of the values: PubChem BioAssay (NCI).
